Values of other authors in US6346270B1, “Phenytoin therapy” (Alza Corporation, priority 1997, dated 2002).

solubility in aqueous fluids: poorly soluble
Structure (SMILES): O=C1NC(=O)C(c2ccccc2)(c2ccccc2)N1 [phenytoin]
